What was measured:
[1] = relative permittivity at zero frequency (dimensionless); conditions: 101 kPa, Liquid, impedance/gain phase analyzer
[2] = Crystal; Derived from relative static permittivity measurements of the liquid and solid states
[3] = relative permittivity at zero frequency (dimensionless); xn = mol fraction of the nth substance listed; conditions: 101 kPa, Liquid, impedance/gain phase analyzer, x2 = 0

C[S+](C)[O-] [dimethyl sulfoxide]
[1]
Conditions | relative permittivity at zero frequency
291.15 K | 47.15
293.15 K | 47.09
295.15 K | 46.84
297.15 K | 46.64
299.15 K | 46.39
301.15 K | 46.18
303.15 K | 45.94
305.15 K | 45.63
307.15 K | 45.39
309.15 K | 45.14
311.15 K | 44.88
313.15 K | 44.64
315.15 K | 44.34
317.15 K | 44.11
319.15 K | 43.87
321.15 K | 43.58
323.15 K | 43.31
325.15 K | 43.07
327.15 K | 42.78
329.15 K | 42.56
331.15 K | 42.27
333.15 K | 42

Conditions | Normal melting temperature [°C]
[2] | 18.1

O [water]
[1]
Conditions | relative permittivity at zero frequency
273.15 K | 87
275.15 K | 86.36
277.15 K | 85.67
279.15 K | 84.84
281.15 K | 84.25
283.15 K | 83.37
285.15 K | 82.73
287.15 K | 82.02
289.15 K | 81.33
291.15 K | 80.65
293.15 K | 79.98
295.15 K | 79.32
297.15 K | 78.42
299.15 K | 77.85
301.15 K | 77.29
303.15 K | 76.61
305.15 K | 75.95
307.15 K | 75.3
309.15 K | 74.65
311.15 K | 73.97
313.15 K | 73.29
315.15 K | 72.68
317.15 K | 72.09
319.15 K | 71.44
321.15 K | 70.76
323.15 K | 70.14
325.15 K | 69.54
327.15 K | 68.94
329.15 K | 68.3
331.15 K | 67.68
333.15 K | 67.07

Conditions | Normal melting temperature [°C]
[2] | 0.1

O [water] + C[S+](C)[O-]
[3]
Conditions | relative permittivity at zero frequency
273.15 K | 87
275.15 K | 86.36
277.15 K | 85.67
279.15 K | 84.84
281.15 K | 84.25
283.15 K | 83.37
285.15 K | 82.73
287.15 K | 82.02
289.15 K | 81.33
291.15 K | 80.65
293.15 K | 79.98
295.15 K | 79.32
297.15 K | 78.42
299.15 K | 77.85
301.15 K | 77.29
303.15 K | 76.61
305.15 K | 75.95
307.15 K | 75.3
309.15 K | 74.65
311.15 K | 73.97
313.15 K | 73.29
315.15 K | 72.68
317.15 K | 72.09
319.15 K | 71.44
321.15 K | 70.76
323.15 K | 70.14
325.15 K | 69.54
327.15 K | 68.94
329.15 K | 68.3
331.15 K | 67.68
333.15 K | 67.07
